Measured values taken from the supplement of paper PMC8671470.

What follows are molecules tested on ML-2 (assay: cell viability (% survival relative to DMSO control, bortezomib = 0%); higher = less cytotoxic). Settings: 1 nM; 72 h.
Procedure, shortened: (§1)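 Seeding density for each of the 10 AML and 5 CML cell lines was titrated to the linear growth range. Cells went into 384-well plates pre-printed in duplicate with compounds at 1, 10, 100, 1000 or 10000 nM and were held for 72 h at 37 °C with 5% CO2. CellTiter-Glo luminescence then provided the readout. Percent survival is expressed relative to vehicle at 100% and a 10 µM positive control at 0%, averaged over duplicates.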
In the case of CC(C)(CCCCCCCCCCC(C)(C)CC(=O)O)CC(=O)O [MEDICA 16], the cell viability is reported as 104%. For Cc1nnc(-c2ccc(N3CCC(Oc4ccccc4C(F)(F)F)CC3)nn2)s1 [MF-438], the cell viability was 96%. Molecule CC(C)c1ccc2c(c1)c(SC(C)(C)C)c(CC(C)(C)C(=O)O)n2Cc1ccc(Cl)cc1 [MK-886] has a cell viability of 132%. Work on O=C(CCl)N(CCCNC(=O)C(F)(F)F)c1ccc([N+](=O)[O-])cc1 [ML175] yielded a cell viability of 97%. Molecule CN(C)C(=N)NC(=N)N [Metformin] has a cell viability of 102%. Cl.OC[C@H]1NC[C@H](O)[C@@H](O)[C@H]1O [Migalastat] was tested, and the cell viability was 98.5%. OCCN1C[C@H](O)[C@@H](O)[C@H](O)[C@H]1CO [Miglitol] was tested, and the cell viability was 95.4%. Molecule CCCCCCCCCCCCC/C=C/[C@@H](O)[C@H](CO)N(C)C [N,N-Dimethylsphingosine] has a cell viability of 95.1%. CCCCCCCNC=O [N-Heptyl-Formamide] gave a cell viability of 121%.

Same assay, conditions: 10 nM; 72 h
Work on O=C(Oc1ccc([N+](=O)[O-])cc1)N1CCC(C(O)(c2ccc3c(c2)OCO3)c2ccc3c(c2)OCO3)CC1 [JZL184] yielded a cell viability of 112%. O=C1N[C@@H]2[C@@H](O)[C@@H](O)[C@H](O)[C@@H](CO)N2C1=O [Kifunensine] was tested, and the cell viability was 95.4%. Molecule CC(C)(CCCCCCCCCCC(C)(C)CC(=O)O)CC(=O)O [MEDICA 16] has a cell viability of 99.4%. Molecule Cc1nnc(-c2ccc(N3CCC(Oc4ccccc4C(F)(F)F)CC3)nn2)s1 [MF-438] has a cell viability of 114%. In the case of CC(C)c1ccc2c(c1)c(SC(C)(C)C)c(CC(C)(C)C(=O)O)n2Cc1ccc(Cl)cc1 [MK-886], the cell viability is reported as 107%. Molecule O=C(CCl)N(CCCNC(=O)C(F)(F)F)c1ccc([N+](=O)[O-])cc1 [ML175] has a cell viability of 102%. For CN(C)C(=N)NC(=N)N [Metformin], the cell viability was 101%. In the case of Cl.OC[C@H]1NC[C@H](O)[C@@H](O)[C@H]1O [Migalastat], the cell viability is reported as 97.1%. For OCCN1C[C@H](O)[C@@H](O)[C@H](O)[C@H]1CO [Miglitol], the cell viability was 104%. For CCCCCCCCCCCCC/C=C/[C@@H](O)[C@H](CO)N(C)C [N,N-Dimethylsphingosine], the cell viability was 96.8%. With CCCCCCCNC=O [N-Heptyl-Formamide] the cell viability was 106%.

Same assay, conditions: 100 nM; 72 h
Molecule O=C(Oc1ccc([N+](=O)[O-])cc1)N1CCC(C(O)(c2ccc3c(c2)OCO3)c2ccc3c(c2)OCO3)CC1 [JZL184] has a cell viability of 114%. O=C1N[C@@H]2[C@@H](O)[C@@H](O)[C@H](O)[C@@H](CO)N2C1=O [Kifunensine] gave a cell viability of 116%. CC(C)(CCCCCCCCCCC(C)(C)CC(=O)O)CC(=O)O [MEDICA 16] gave a cell viability of 96.3%. Cc1nnc(-c2ccc(N3CCC(Oc4ccccc4C(F)(F)F)CC3)nn2)s1 [MF-438] was tested, and the cell viability was 98.6%. For CC(C)c1ccc2c(c1)c(SC(C)(C)C)c(CC(C)(C)C(=O)O)n2Cc1ccc(Cl)cc1 [MK-886], the cell viability was 95.3%. For O=C(CCl)N(CCCNC(=O)C(F)(F)F)c1ccc([N+](=O)[O-])cc1 [ML175], the cell viability was 94.5%. For CN(C)C(=N)NC(=N)N [Metformin], the cell viability was 99.2%. In the case of Cl.OC[C@H]1NC[C@H](O)[C@@H](O)[C@H]1O [Migalastat], the cell viability is reported as 111%. For OCCN1C[C@H](O)[C@@H](O)[C@H](O)[C@H]1CO [Miglitol], the cell viability was 89.3%. With CCCCCCCCCCCCC/C=C/[C@@H](O)[C@H](CO)N(C)C [N,N-Dimethylsphingosine] the cell viability was 97.7%. Molecule CCCCCCCNC=O [N-Heptyl-Formamide] has a cell viability of 88.8%.

Same assay, conditions: 1000 nM; 72 h
In the case of O=C(Oc1ccc([N+](=O)[O-])cc1)N1CCC(C(O)(c2ccc3c(c2)OCO3)c2ccc3c(c2)OCO3)CC1 [JZL184], the cell viability is reported as 104%. With O=C1N[C@@H]2[C@@H](O)[C@@H](O)[C@H](O)[C@@H](CO)N2C1=O [Kifunensine] the cell viability was 95.7%. In the case of CC(C)(CCCCCCCCCCC(C)(C)CC(=O)O)CC(=O)O [MEDICA 16], the cell viability is reported as 101%. For Cc1nnc(-c2ccc(N3CCC(Oc4ccccc4C(F)(F)F)CC3)nn2)s1 [MF-438], the cell viability was 117%. Work on CC(C)c1ccc2c(c1)c(SC(C)(C)C)c(CC(C)(C)C(=O)O)n2Cc1ccc(Cl)cc1 [MK-886] yielded a cell viability of 95.8%. In the case of O=C(CCl)N(CCCNC(=O)C(F)(F)F)c1ccc([N+](=O)[O-])cc1 [ML175], the cell viability is reported as 0.519%. CN(C)C(=N)NC(=N)N [Metformin] showed a cell viability of 101%. Work on Cl.OC[C@H]1NC[C@H](O)[C@@H](O)[C@H]1O [Migalastat] yielded a cell viability of 103%. OCCN1C[C@H](O)[C@@H](O)[C@H](O)[C@H]1CO [Miglitol] was tested, and the cell viability was 96%. CCCCCCCCCCCCC/C=C/[C@@H](O)[C@H](CO)N(C)C [N,N-Dimethylsphingosine] gave a cell viability of 107%. CCCCCCCNC=O [N-Heptyl-Formamide] gave a cell viability of 117%.

Same assay, conditions: 10000 nM; 72 h
O=C(Oc1ccc([N+](=O)[O-])cc1)N1CCC(C(O)(c2ccc3c(c2)OCO3)c2ccc3c(c2)OCO3)CC1 [JZL184] gave a cell viability of 98.9%. O=C1N[C@@H]2[C@@H](O)[C@@H](O)[C@H](O)[C@@H](CO)N2C1=O [Kifunensine] gave a cell viability of 90.9%. CC(C)(CCCCCCCCCCC(C)(C)CC(=O)O)CC(=O)O [MEDICA 16] showed a cell viability of 91.5%. For Cc1nnc(-c2ccc(N3CCC(Oc4ccccc4C(F)(F)F)CC3)nn2)s1 [MF-438], the cell viability was 88.3%. CC(C)c1ccc2c(c1)c(SC(C)(C)C)c(CC(C)(C)C(=O)O)n2Cc1ccc(Cl)cc1 [MK-886] showed a cell viability of 67.8%. O=C(CCl)N(CCCNC(=O)C(F)(F)F)c1ccc([N+](=O)[O-])cc1 [ML175] was tested, and the cell viability was -0.998%. For CN(C)C(=N)NC(=N)N [Metformin], the cell viability was 88.5%. Work on Cl.OC[C@H]1NC[C@H](O)[C@@H](O)[C@H]1O [Migalastat] yielded a cell viability of 100%. OCCN1C[C@H](O)[C@@H](O)[C@H](O)[C@H]1CO [Miglitol] showed a cell viability of 105%. CCCCCCCCCCCCC/C=C/[C@@H](O)[C@H](CO)N(C)C [N,N-Dimethylsphingosine] gave a cell viability of -0.179%. Work on CCCCCCCNC=O [N-Heptyl-Formamide] yielded a cell viability of 90.9%.

Each molecule was assayed on THP-1 in the same assay as above. Settings: 1 nM; 72 h.
Procedure, shortened: as §1
Work on O=C(Oc1ccc([N+](=O)[O-])cc1)N1CCC(C(O)(c2ccc3c(c2)OCO3)c2ccc3c(c2)OCO3)CC1 [JZL184] yielded a cell viability of 97.2%. O=C1N[C@@H]2[C@@H](O)[C@@H](O)[C@H](O)[C@@H](CO)N2C1=O [Kifunensine] gave a cell viability of 98.6%. CC(C)(CCCCCCCCCCC(C)(C)CC(=O)O)CC(=O)O [MEDICA 16] was tested, and the cell viability was 103%. Cc1nnc(-c2ccc(N3CCC(Oc4ccccc4C(F)(F)F)CC3)nn2)s1 [MF-438] gave a cell viability of 97.9%. Molecule CC(C)c1ccc2c(c1)c(SC(C)(C)C)c(CC(C)(C)C(=O)O)n2Cc1ccc(Cl)cc1 [MK-886] has a cell viability of 96.6%. In the case of O=C(CCl)N(CCCNC(=O)C(F)(F)F)c1ccc([N+](=O)[O-])cc1 [ML175], the cell viability is reported as 99.7%. With CN(C)C(=N)NC(=N)N [Metformin] the cell viability was 99.4%. Cl.OC[C@H]1NC[C@H](O)[C@@H](O)[C@H]1O [Migalastat] was tested, and the cell viability was 102%. With OCCN1C[C@H](O)[C@@H](O)[C@H](O)[C@H]1CO [Miglitol] the cell viability was 102%. With CCCCCCCCCCCCC/C=C/[C@@H](O)[C@H](CO)N(C)C [N,N-Dimethylsphingosine] the cell viability was 97.5%. In the case of CCCCCCCNC=O [N-Heptyl-Formamide], the cell viability is reported as 110%.

Same assay, conditions: 10 nM; 72 h
O=C(Oc1ccc([N+](=O)[O-])cc1)N1CCC(C(O)(c2ccc3c(c2)OCO3)c2ccc3c(c2)OCO3)CC1 [JZL184] showed a cell viability of 103%.
